Experimental data reported in PubChem BioAssay AID210 (DTP/NCI, 2004).
Where “and” joins values, the source holds several entries; their conditions need not be identical. Equal entries are not always repeated. Inconclusive results and toxic doses are left out. *1 amine or outer side, *2 acyl side, *3 side chain or, on linkers, in order; H or OH if unused. Where a SMILES comes first, the peptide text is derived from it. Bridges are numbered along the chain shown (N, C = ends). Roman numbers before positions name the chains, in order. [ ]: non-standard residue; d: D form. Actinocin(1to9) = Cc1c2oc3c(C)ccc(C(=O)[*:2])c3nc-2c(C(=O)[*:1])c(N)c1=O; Actinocin(9to1) = Cc1c2oc3c(C)ccc(C(=O)[*:1])c3nc-2c(C(=O)[*:2])c(N)c1=O; NMeV = CN[CH](C(=O)O)C(C)C; Aze = O=C(O)[CH]1CCN1; Sar = CNCC(=O)O

Tested on: CD2F1 mice, ip Colon 26 adenocarcinoma, median survival T/C
Assay: NCI In Vivo Anticancer Drug Screen. Data for tumor model Colon 26 Adenocarcinoma (intraperitoneal) in CD2F1 (CDF1) mice
Settings: endpoint: median survival time, higher = longer survival
Protocol: The antitumor activity of compounds was measured in mice bearing transplantable tumors. Survival or tumor size were measured and the results are expressed as the measurement made in the treated group (T) divided by the measurement made in the vehicle treated control group (C). The tumor model used in this assay is Colon 26 Adenocarcinoma (intraperitoneal) in CD2F1 (CDF1) mice

[1] = dose: 270.0 micrograms/kg/injection, schedule: Q04DX003 (ip), vehicle: saline + alcohol

CCCCCCCCNc1cc2c3c(c1)CCCN3CCC2
T/C (dose: 0.37 mg/kg/injection, schedule: Q04DX003 (ip), vehicle: Klucel (hydroxypropylcellulose) (HPC)): 104 % of control
T/C (dose: 0.75 mg/kg/injection, schedule: Q04DX003 (ip), vehicle: Klucel (hydroxypropylcellulose) (HPC)): 100 % of control
T/C (dose: 1.5 mg/kg/injection, schedule: Q04DX003 (ip), vehicle: Klucel (hydroxypropylcellulose) (HPC)): 102 % of control
T/C (dose: 3.0 mg/kg/injection, schedule: Q04DX003 (ip), vehicle: Klucel (hydroxypropylcellulose) (HPC)): 109 % of control
T/C (dose: 6.0 mg/kg/injection, schedule: Q04DX003 (ip), vehicle: Klucel (hydroxypropylcellulose) (HPC)): 106 % of control

Cc1c2oc3c(C)ccc(C(=O)NC4C(=O)NC(C(C)C)C(=O)N5CCC5C(=O)N(C)CC(=O)N(C)C(C(C)C)C(=O)OC4C)c3nc-2c(C(=O)NC2C(=O)NC(C(C)C)C(=O)N3CCC3C(=O)N(C)CC(=O)N(C)C(C(C)C)C(=O)OC2C)c(N)c1=O (centres undefined) (I: TV[Aze][Sar][NMeV] / II: TV[Aze][Sar][NMeV]; ester I:1-I:C, II:1-II:C; linker I:N-II:N via Actinocin(9to1); configuration not given here)
T/C [1]: 114 % of control

Cc1c2oc3c(C)ccc(C(=O)NC4C(=O)NC(C(C)C)C(=O)N5CCCC5C(=O)N(C)CC(=O)N(C)C(C(C)C)C(=O)OC4C)c3nc-2c(C(=O)NC2C(=O)NC(C(C)C)C(=O)N3CCC3C(=O)N(C)CC(=O)N(C)C(C(C)C)C(=O)OC2C)c(N)c1=O (centres undefined) (I: TV[Aze][Sar][NMeV] / II: TVP[Sar][NMeV]; ester I:1-I:C, II:1-II:C; linker I:N-II:N via Actinocin(1to9); configuration not given here)
T/C (dose: 0.08 mg/kg/injection, schedule: Q04DX003 (ip), vehicle: saline + alcohol): 100 % of control
T/C (dose: 0.14 mg/kg/injection, schedule: Q04DX003 (ip), vehicle: saline + alcohol): 123 % of control
T/C (dose: 0.23 mg/kg/injection, schedule: Q04DX003 (ip), vehicle: saline + alcohol): 119 % of control
T/C (dose: 0.65 mg/kg/injection, schedule: Q04DX003 (ip), vehicle: saline + alcohol): 151 % of control
T/C [1]: 108 % of control
T/C (dose: 375.0 micrograms/kg/injection, schedule: Q01DX001 (ip), vehicle: saline + alcohol): 119 % of control
T/C (dose: 450.0 micrograms/kg/injection, schedule: Q04DX003 (ip), vehicle: saline + alcohol): 151 % of control
T/C (dose: 750.0 micrograms/kg/injection, schedule: Q01DX001 (ip), vehicle: saline + alcohol): 102 % of control
T/C (dose: 750.0 micrograms/kg/injection, schedule: Q04DX003 (ip), vehicle: saline + alcohol): 157 % of control

CCSC(=O)N1c2ccc(OC)cc2C=CC1C#N (centres undefined)
T/C (dose: 12.5 mg/kg/injection, schedule: Q04DX003 (ip), vehicle: saline with Tween-80): 106 % of control
T/C (dose: 25.0 mg/kg/injection, schedule: Q04DX003 (ip), vehicle: saline with Tween-80): 104 % of control
T/C (dose: 50.0 mg/kg/injection, schedule: Q04DX003 (ip), vehicle: saline with Tween-80): 110 % of control
T/C (dose: 100.0 mg/kg/injection, schedule: Q04DX003 (ip), vehicle: saline with Tween-80): 107 % of control
T/C (dose: 175.0 mg/kg/injection, schedule: Q04DX002 (ip), vehicle: saline with Tween-80): 110 % of control
T/C (dose: 200.0 mg/kg/injection, schedule: Q04DX003 (ip), vehicle: saline with Tween-80): 109 % of control
T/C (dose: 350.0 mg/kg/injection, schedule: Q04DX002 (ip), vehicle: saline with Tween-80): 124 % of control
T/C (dose: 400.0 mg/kg/injection, schedule: Q04DX003 (ip), vehicle: saline with Tween-80): 115 % of control
T/C (dose: 700.0 mg/kg/injection, schedule: Q04DX002 (ip), vehicle: saline with Tween-80): 100 % of control
T/C (dose: 1400.0 mg/kg/injection, schedule: Q04DX002 (ip), vehicle: saline with Tween-80): 98 % of control

COc1cccc2c1C(=O)c1c(O)c3c(c(O)c1C2=O)CC(O)(C(=O)CO)CC3OC1CC(N)C(O)C(C)O1 (centres undefined)
T/C (dose: 1.13 mg/kg/injection, schedule: Q04DX003 (ip), vehicle: water): 107 % of control
T/C (dose: 2.25 mg/kg/injection, schedule: Q04DX003 (ip), vehicle: water): 99 % of control and 113 % of control
T/C (dose: 4.5 mg/kg/injection, schedule: Q04DX003 (ip), vehicle: water): 113 % of control
T/C (dose: 9.0 mg/kg/injection, schedule: Q04DX003 (ip), vehicle: water): 116 % of control and 117 % of control
T/C (dose: 18.0 mg/kg/injection, schedule: Q04DX003 (ip), vehicle: water): 117 % of control
T/C (dose: 36.0 mg/kg/injection, schedule: Q04DX003 (ip), vehicle: water): 111 % of control
T/C (dose: 55.0 mg/kg/injection, schedule: Q07DX002 (iv), vehicle: saline): 107 % of control
T/C (dose: 74.0 mg/kg/injection, schedule: Q07DX002 (iv), vehicle: saline): 112 % of control
T/C (dose: 190.0 mg/kg/injection, schedule: Q07DX002 (iv), vehicle: saline): 124 % of control

CCCCCCCC(=O)OCC(=O)[C@]1(O)Cc2c(O)c3c(c(O)c2[C@@H](OC2CC(N)C(O)C(C)O2)C1)C(=O)c1c(OC)cccc1C3=O (some centres undefined)
T/C (dose: 4.5 mg/kg/injection, schedule: Q07DX003 (iv), vehicle: saline): 112 % of control
T/C (dose: 7.0 mg/kg/injection, schedule: Q07DX003 (iv), vehicle: saline): 112 % of control

COc1cccc2c1C(=O)c1c(O)c3c(c(O)c1C2=O)C[C@@](O)(/C(C)=N\NC(=O)CO)C[C@@H]3OC1CC(N)C(O)C(C)O1 (some centres undefined)
T/C (dose: 4.5 mg/kg/injection, schedule: Q07DX003 (iv), vehicle: other): 104 % of control
T/C (dose: 7.0 mg/kg/injection, schedule: Q07DX003 (iv), vehicle: other): 101 % of control
T/C (dose: 11.0 mg/kg/injection, schedule: Q07DX003 (iv), vehicle: other): 108 % of control
T/C (dose: 17.0 mg/kg/injection, schedule: Q07DX003 (iv), vehicle: other): 104 % of control

CCC1(O)CC(OC2CC(N(C)C)C(OC3CC(O)C(OC4CCC(=O)C(C)O4)C(C)O3)C(C)O2)c2c(cc3c(c2O)C(=O)c2c(O)ccc(O)c2C3=O)C1C(=O)OC (centres undefined)
T/C (dose: 0.38 mg/kg/injection, schedule: Q04DX003 (ip), vehicle: saline with Tween-80): 103 % of control
T/C (dose: 0.75 mg/kg/injection, schedule: Q04DX003 (ip), vehicle: saline with Tween-80): 117 % of control
T/C (dose: 1.5 mg/kg/injection, schedule: Q04DX003 (ip), vehicle: saline with Tween-80): 123 % of control
T/C (dose: 3.0 mg/kg/injection, schedule: Q04DX003 (ip), vehicle: saline with Tween-80): 108 % of control

CN(C)CCCNc1c2ccccc2nc2cccc([N+](=O)[O-])c12
T/C (dose: 0.02 mg/kg/injection, schedule: Q07DX002 (iv), vehicle: saline with Tween-80): 105 % of control
T/C (dose: 0.04 mg/kg/injection, schedule: Q07DX002 (iv), vehicle: saline with Tween-80): 107 % of control
T/C (dose: 0.07 mg/kg/injection, schedule: Q07DX002 (iv), vehicle: saline with Tween-80): 108 % of control
T/C (dose: 0.12 mg/kg/injection, schedule: Q07DX002 (iv), vehicle: saline with Tween-80): 106 % of control
T/C (dose: 0.3 mg/kg/injection, schedule: Q07DX002 (iv), vehicle: saline with Tween-80): 101 % of control
T/C (dose: 0.46 mg/kg/injection, schedule: Q07DX002 (iv), vehicle: saline with Tween-80): 100 % of control

C[C@@]1(CO)[C@H](O)CC[C@@]2(C)[C@H]1CC[C@H]1C[C@@H]3C[C@@]12CC[C@@]3(O)COC(=O)CN
T/C (dose: 12.5 mg/kg/injection, schedule: Q01DX009 (ip), vehicle: saline + alcohol): 113 % of control
T/C (dose: 25.0 mg/kg/injection, schedule: Q01DX009 (ip), vehicle: saline + alcohol): 95 % of control
T/C (dose: 25.0 mg/kg/injection, schedule: Q04DX003 (iv), vehicle: saline): 115 % of control
T/C (dose: 50.0 mg/kg/injection, schedule: Q01DX009 (ip), vehicle: saline + alcohol): 106 % of control
T/C (dose: 50.0 mg/kg/injection, schedule: Q04DX003 (iv), vehicle: saline): 118 % of control
T/C (dose: 75.0 mg/kg/injection, schedule: Q01DX009 (ip), vehicle: saline + alcohol): 94 % of control
T/C (dose: 100.0 mg/kg/injection, schedule: Q04DX003 (iv), vehicle: saline): 100 % of control

O=NN(CCCl)C(=O)NCCCl
T/C (dose: 4.0 mg/kg/injection, schedule: Q04DX003 (ip), vehicle: saline + alcohol): 168 % of control
T/C (dose: 8.0 mg/kg/injection, schedule: Q04DX003 (ip), vehicle: saline + alcohol): 250 % of control
T/C (dose: 16.0 mg/kg/injection, schedule: Q04DX003 (ip), vehicle: saline + alcohol): 335 % of control
T/C (dose: 20.0 mg/kg/injection, schedule: Q04DX003 (oral), vehicle: saline + alcohol): 161 % of control
T/C (dose: 33.0 mg/kg/injection, schedule: Q04DX003 (oral), vehicle: saline + alcohol): 255 % of control
T/C (dose: 53.0 mg/kg/injection, schedule: Q04DX003 (oral), vehicle: saline + alcohol): 289 % of control
T/C (dose: 85.0 mg/kg/injection, schedule: Q04DX003 (oral), vehicle: saline + alcohol): 285 % of control
